This is an account of results in US20200277262A1, “N-(CYANO-SUBSTITUTED BENZYL OR PYRIDINYLMETHYL)-3-HYDROXYPICOLINAMIDE DERIVATIVES” (Takeda Pharmaceutical Company Limited, priority 2017, published 2020).

Assay [1] deals with T1, PHD2 enzyme (residues 181-417) (Homo sapiens, UniProt Q9GZT9).
T1 construct: The IC50 values for the PHD2 enzyme (residues 181-417) were determined
Nature of the assay: Inhibition of PHD2 Enzyme (LC/MS detection of hydroxylated peptide). The note with it: 5 nM enzyme, 1 μM biotin-labeled peptide, 2 μM 2-oxoglutarate, 60 min pre-incubation, pH 7.3; -log(IC50), IC50 molar; read-out: Inhibition of PHD2 (pIC50) (converted). The class given is biochemical. The procedure:
The IC50 values for the PHD2 enzyme (residues 181-417) were determined by mixing increasing amounts of an inhibitor with a fixed amount of enzyme (5 nM, final concentration) and Biotin-labeled peptide (Biotin-Asp-Leu-Glu-Met-Leu-Ala-Pro-Tyr-Ile-Pro-Met-Asp-Asp-Asp-Phe-Gln-Leu, 1 μM final concentration) and 2-oxyglutarate (2 μM final concentration) in 50 mM HEPES, 50 mM KCl, 0.5 mM TCEP, 2 μM FeCl2, 0.1 mg/mL BSA, at pH 7.3. The reaction was conducted by pre-incubating the enzyme in the presence of the inhibitor for 60 minutes at room temperature. The activity of the free enzyme was measured by adding the peptide, the 2-oxoglutarate, and ascorbic acid (1 mM final concentration). The enzymatic activity was quenched after 60 minutes by adding an excess of a tight binding inhibitor to the assay mixture. The amount of product released was measured by using a LC/MS system (Agilent HPLC with Applied Biosystems API3000 Mass Spectrometer). Data were analyzed using the classical isotherm equation for the determination of IC50 values and are reported in Table 1, below, as pIC50, i.e., −log(IC50), where IC50 is molar concentration of the test compound at 50% inhibition.
(§1) Table 1 lists biological data for some of the compounds shown in the examples, where larger pIC50 and pEC50 values represent higher potency or activity, respectively. The IC50 data (reported in Table 1 as pIC50) were obtained using the enzyme-based assay described in the specification under the heading “Inhibition of PHD2 Enzyme.” The EC50 data (reported in Table 1 as pEC50) were obtained using the cell-based assay described in the specification under the heading “Cell-based HIF-α Stabilization Assay.”

The subject of assay [2] is HIF1a protein content in H9c2 rat cardiomyocytes. Briefly: Cell-based HIF-α Stabilization Assay (HIF1a ELISA). The note with it: H9c2 cells, 24 hours compound incubation, concentration giving 50% of desferrioxamine maximum response, -log(EC50), EC50 molar, read-out: Stabilization of HIF-α (pEC50) (converted). The procedure:
H9c2 rat cardiomyocytes (ATCC) were seeded in 96-well tissue culture microplates and cultured for 24 hours prior to addition of compounds (11 point range of serial dilutions) or DMSO vehicle. After 24 hours of compound incubation, whole cell extracts were prepared by lysing cells in cell extraction buffer containing protease and phosphatase inhibitors (Meso-Scale Discovery). HIF1a protein content was assessed by ELISA (Meso-Scale Discovery) and expressed as % relative to the maximum response obtained from the positive control, desferrioxamine (Sigma-Aldrich). EC50 for each compound was obtained by curve-fitting using XLfit4 MicroSoft Excel curve-fitting software to calculate the compound concentration that results in 50% of the desferrioxamine maximum response.
as §1
For orientation: An ELISA detects its analyte on a solid surface through an enzyme-linked reagent.

T1 sequence (Q9GZT9 181-417): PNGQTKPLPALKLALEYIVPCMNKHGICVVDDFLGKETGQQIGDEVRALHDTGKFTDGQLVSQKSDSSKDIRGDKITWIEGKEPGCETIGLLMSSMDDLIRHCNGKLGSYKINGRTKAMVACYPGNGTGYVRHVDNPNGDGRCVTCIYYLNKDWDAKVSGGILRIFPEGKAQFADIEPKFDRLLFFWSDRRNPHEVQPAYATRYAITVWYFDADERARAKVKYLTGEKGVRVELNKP

For `N#Cc1ccc(CNC(=O)c2ncccc2O)cc1` [Example 1, N-(4-cyanobenzyl)-3-hydroxypicolinamide], the IC50 in assay [1] is 63.1 nM. In assay [2], the EC50 was 10000 nM. On to `N#Cc1cccc(CNC(=O)c2ncccc2O)c1` [Example 2, N-(3-cyanobenzyl)-3-hydroxypicolinamide, reference compound], for which, in assay [1], the IC50 is 3160 nM.

In the case of `N#Cc1ccc(CNC(=O)c2ncccc2O)cn1` [Example 3, N-((6-cyanopyridin-3-yl)methyl)-3-hydroxypicolinamide], the IC50 in assay [1] was 1000 nM. For `Cc1cc(C#N)ccc1CNC(=O)c1ncccc1O` [Example 4, N-(4-cyano-2-methylbenzyl)-3-hydroxypicolinamide], in assay [1], the IC50 is 20 nM. The EC50 in assay [2] is 7940 nM.

For `N#Cc1ccc(CNC(=O)c2ncccc2O)c(F)c1` [Example 5, N-(4-cyano-2-fluorobenzyl)-3-hydroxypicolinamide], in assay [1], the IC50 was 31.6 nM. Besides, the EC50 in assay [2] is 7940 nM. In the same order, the values of `N#Cc1ccc(CNC(=O)c2ncccc2O)cc1F` [Example 6, N-(4-cyano-3-fluorobenzyl)-3-hydroxypicolinamide] are 31.6 nM and 6310 nM.

For `N#Cc1ccc(CNC(=O)c2ncccc2O)c(C(F)(F)F)c1` [Example 7, N-(4-cyano-2-(trifluoromethyl)benzyl)-3-hydroxypicolinamide], the IC50 in assay [1] was 3980 nM. With `CCN1CCN(C(=O)c2cnc(C(=O)NCc3ccc(C#N)cc3C)c(O)c2)CC1` [Example 8, N-(4-cyano-2-methylbenzyl)-5-(4-ethylpiperazine-1-carbonyl)-3-hydroxypicolinamide], in assay [1], the IC50 was 100 nM. In addition, the EC50 in assay [2] was 12600 nM. In the same order, the values of `CCN1CCN(C(=O)c2cnc(C(=O)N[C@@H]3CCc4cc(C#N)ccc43)c(O)c2)CC1` [Example 9, (R)—N-(5-cyano-2,3-dihydro-1H-inden-1-yl)-5-(4-ethylpiperazine-1-carbonyl)-3-hydroxypicolinamide] are 50.1 nM and 12600 nM. As to `Cc1cc(C#N)cc(C)c1CNC(=O)c1ncccc1O` [Example 10, N-(4-cyano-2,6-dimethylbenzyl)-3-hydroxypicolinamide], the IC50 in assay [1] was 12.6 nM. Moreover, in assay [2], the EC50 was 3160 nM. On to `Cc1cnc(C(=O)NCc2c(C)cc(C#N)cc2C)c(O)c1` [Example 11, N-(4-cyano-2,6-dimethylbenzyl)-3-hydroxy-5-methylpicolinamide], for which the IC50 in assay [1] is 31.6 nM. In addition, in assay [2], the EC50 is 7940 nM.

As for `Cc1cc(CNC(=O)c2ncccc2O)c(C)cc1C#N` [Example 12, N-(4-cyano-2,5-dimethylbenzyl)-3-hydroxypicolinamide], the IC50 in assay [1] was 39.8 nM. In assay [2], the EC50 is 25100 nM. Taken in the same sequence, the figures for `Cc1cc(C#N)c(F)cc1CNC(=O)c1ncccc1O` [Example 13, N-(4-cyano-5-fluoro-2-methylbenzyl)-3-hydroxypicolinamide] were 15.8 nM and 10000 nM.

`Cc1c(CNC(=O)c2ncccc2O)ccc(C#N)c1F` [Example 14, N-(4-cyano-3-fluoro-2-methylbenzyl)-3-hydroxypicolinamide]: the IC50 in assay [1] is 12.6 nM. Further, the EC50 in assay [2] was 12600 nM. Taken in the same sequence, the figures for `N#Cc1ccc(CNC(=O)c2ncccc2O)c(Cl)c1` [Example 15, N-(2-chloro-4-cyanobenzyl)-3-hydroxypicolinamide] were 25.1 nM and 12600 nM. Regarding `N#Cc1ccc(CNC(=O)c2ncc(C#N)cc2O)cc1` [Example 16, 5-cyano-N-(4-cyanobenzyl)-3-hydroxypicolinamide], the IC50 in assay [1] is 251 nM. For the same molecule, the EC50 in assay [2] is 6310 nM. For `Cc1cc(C#N)ccc1CNC(=O)c1ncc(C#N)cc1O` [Example 17, 5-cyano-N-(4-cyano-2-methylbenzyl)-3-hydroxypicolinamide], the IC50 in assay [1] is 316 nM. In addition, the EC50 in assay [2] was 50100 nM. With `N#Cc1ccc2c(c1)CCCC2NC(=O)c1ncccc1O` (stereo not drawn) [Example 18, N-(6-cyano-1,2,3,4-tetrahydronaphthalen-1-yl)-3-hydroxypicolinamide], in assay [1], the IC50 is 1260 nM. The EC50 in assay [2] was 50100 nM. On to `N#Cc1ccc2c(c1)CC[C@H]2NC(=O)c1ncccc1O` [Example 19, (R)—N-(5-cyano-2,3-dihydro-1H-inden-1-yl)-3-hydroxypicolinamide], for which the IC50 in assay [1] is 10 nM. In assay [2], the EC50 is 6310 nM. Turning to `N#Cc1ccc2c(c1)CC[C@H]2NC(=O)c1ncccc1O` [Example 20, (R)—N-(5-cyano-2,3-dihydro-1H-inden-1-yl)-3-hydroxypicolinamide], the IC50 in assay [1] is 12.6 nM. For `N#Cc1ccc2c(c1)CC[C@@H]2NC(=O)c1ncccc1O` [Example 21, (S)—N-(5-cyano-2,3-dihydro-1H-inden-1-yl)-3-hydroxypicolinamide], the IC50 in assay [1] is 2510 nM. The EC50 in assay [2] is 50100 nM. On to `N#Cc1ccc2c(c1)OCC2NC(=O)c1ncccc1O` (stereo not drawn) [Example 22, N-(6-cyano-2,3-dihydrobenzofuran-3-yl)-3-hydroxypicolinamide], for which the IC50 in assay [1] is 39.8 nM. In addition, the EC50 in assay [2] is 7940 nM.

As for `Cc1cnc(C(=O)N[C@@H]2CCc3cc(C#N)ccc32)c(O)c1` [Example 23, (R)—N-(5-cyano-2,3-dihydro-1H-inden-1-yl)-3-hydroxy-5-methylpicolinamide], the IC50 in assay [1] is 31.6 nM. Besides, the EC50 in assay [2] was 7940 nM. In the case of `N#Cc1ccc(CNC(=O)c2ncccc2O)nc1` [Example 24, N-((5-cyanopyridin-2-yl)methyl)-3-hydroxypicolinamide], the IC50 in assay [1] was 398 nM. Also, in assay [2], the EC50 was 7940 nM. In the same order, the values of `Cc1cc(C#N)cc(C)c1CNC(=O)c1ncc(Cl)cc1O` [Example 25, 5-chloro-N-(4-cyano-2,6-dimethylbenzyl)-3-hydroxypicolinamide] are 20 nM and 12600 nM. Taken in the same sequence, the figures for `Cc1cc(C#N)cc(C)c1CNC(=O)c1ncc(C#N)cc1O` [Example 26, 5-cyano-N-(4-cyano-2,6-dimethylbenzyl)-3-hydroxypicolinamide] were 25.1 nM and 12600 nM. In the same order, the values of `Cc1cc(C#N)cc(C)c1CNC(=O)c1ncc(F)cc1O` [Example 27, N-(4-cyano-2,6-dimethylbenzyl)-5-fluoro-3-hydroxypicolinamide] are 15.8 nM and 6310 nM.

Turning to `Cc1cc(C#N)cc(C)c1CNC(=O)c1ncc(C(F)(F)F)cc1O` [Example 28, N-(4-cyano-2,6-dimethylbenzyl)-3-hydroxy-5-(trifluoromethyl)picolinamide], the IC50 in assay [1] was 50.1 nM. In addition, in assay [2], the EC50 was 15800 nM. In the same order, the values of `COc1cnc(C(=O)NCc2c(C)cc(C#N)cc2C)c(O)c1` [Example 29, N-(4-cyano-2,6-dimethylbenzyl)-3-hydroxy-5-methoxypicolinamide] are 10 nM and 1580 nM. In the case of `N#Cc1ccc2c(c1)CC[C@H]2NC(=O)c1ncc(F)cc1O` [Example 30, (R)—N-(5-cyano-2,3-dihydro-1H-inden-1-yl)-5-fluoro-3-hydroxypicolinamide], the IC50 in assay [1] is 15.8 nM. Further, the EC50 in assay [2] was 15800 nM.

Consider `Cc1cc(C#N)ccc1CNC(=O)c1ncc(C(F)(F)F)cc1O` [Example 37, N-(4-cyano-2-methylbenzyl)-3-hydroxy-5-(trifluoromethyl)picolinamide], for which, in assay [1], the IC50 is 251 nM.
